From PubChem BioAssay AID1918999 (Molecular Pharmacology Branch, DTP, NCI, 2023)
Each block holds one molecule with its values, some of them ahead of it.

Test system: 556581-035-R-J1-PDC complex spheroid growth
Test: Anticancer human tumor 556581-035-R-J1-PDC patient-derived ovarian carcinoma cell line growth inhibition [AhR]
Conditions: for IC50: curve of first compound; for viability, T/C: stronger effect = lower value
Excerpt: Multicellular complex tumor spheroid response to aryl hydrocarbon receptor antagonists in combination with a variety of drugs and investigational agents in selected tumor cell lines
The current study was undertaken to assess response to aryl hydrocarbon receptor antagonists in combination with standard-of-care drugs and investigational agents in solid tumor complex spheroid models. Complex spheroids include a stromal component modeled by human endothelial cells (HUVEC) and fibroblasts modeled by human mesenchymal stem cells (MSCs). The concentration ranges selected for each drug and investigational agent were based upon clinically achievable concentrations if the clinical Cmax of the agent was known.
Compounds. The drugs and investigational agents: BAY 2416964 (NSC825713), GNF351 (NSC835774), CH-223191 (NSC835775), CPI-455 (NSC825282), aza-TdCyd (NSC777586), decitabine (NSC127716), belinostat (NSC758774), entinostat (NSC756642), pevonedistat (NSC761192), tazemetostat (NSC777109), talazoparib (NSC765396), olaparib (NSC753686), selinexor (NSC780203), nedisertib (M3814, NSC802822), bortezomib (NSC756655), venetoclax (NSC766270), doxorubicin (NSC123127), elimusertib (BAY189344, NSC800525), ceralasertib (AZD6738, NSC777638), TAK-243 (NSC785004), alisertib (NSC759677), etoposide (NSC141540), topotecan (NSC609699), eribulin (NSC707389), gemcitabine (NSC613327), carboplatin (NSC241240), cisplatin (NSC119875), and SN-38 (NSC673596) were obtained from the National Cancer Institute (NCI) Developmental Therapeutics Program Chemical Repository (32). The FDA-approved anticancer drug set is available from the Developmental Therapeutics Program at https://dtp.cancer.gov/organization/dscb/obtaining/available plates.htm. […] The stock solutions were prepared in dimethyl sulfoxide (DMSO, Sigma-Aldrich, St. Louis, MO, cat. D2650), except for the platinum compounds which were prepared in saline (Quality Biological, Gaithersburg, MD, cat. 114-055-101), at 800-fold the tested concentration and stored at -70 degrees C prior to their use. All drugs and investigational agents were tested over a range starting from a high concentration at or near the clinical Cmax and decreasing in half-log increments. If the clinical Cmax for an agent had not been determined, the highest concentration tested was 10 microM (Table 1).
Cell Culture. All cells were maintained in an incubator at 37 degrees C and 5% CO2 with 95% humidity. The PDC lines were cultured according to standard operating procedures established by the NCI PDMR (https://pdmr.cancer.gov). Briefly, all PDCs were thawed and cultured in Matrigel-coated flasks prepared with a working solution of 1X Ham's F-12 nutrient mix, without supplementation (Invitrogen, Waltham, MA, cat. 11765054), 100 U/mL penicillin-streptomycin (Invitrogen, cat. 15140122), and 2.5% Matrigel (Corning Inc., Corning, NY, cat. 354248) for the first three passages. All PDCs were cultured in complete DMEM/F-12 media containing advanced DMEM/F-12 (Invitrogen, cat. 12634028), 4.9% defined fetal bovine serum, heat inactivated (HyClone Laboratories Inc., Logan, UT, cat. SH30070.03HI), 389 ng/mL hydrocortisone (Sigma-Aldrich, cat. H4001), 9.7 ng/mL human EGF recombinant protein (Invitrogen, cat. PHG0313), 23.4 microg/mL adenine (Sigma-Aldrich, cat. A2786), 97.3 U/mL penicillin-streptomycin (Invitrogen, cat. 15140122), 1.9 mM L-glutamine (Invitrogen, cat. 25030081), and 9.7 microM Y-27632 dihydrochloride (Tocris Bioscience, Bristol, United Kingdom, cat. 1254). The PDCs were cultured in complete DMEM/F12 media without 10 microM Y-27632 dihydrochloride for at least two passages prior to the screen. The established cell lines NCI-H1341 and […] were cultured in DMEM/F-12, HEPES (Invitrogen, cat. 11330032), 5% defined fetal bovine serum (HyClone Laboratories Inc., cat. SH30070.03), ITS premix universal culture supplement [insulin (5 microg/mL), transferrin (5 microg/mL), and selenious acid (5 ng/mL)] […]

[1] = second compound 0.1 µM, first compound 0.0316 µM
[2] = second compound 0.1 µM, first compound 0.1 µM
[3] = second compound 0.1 µM, first compound 0.316 µM
[4] = second compound 0.1 µM, first compound 1 µM
[5] = second compound 0.1 µM, first compound 3.16 µM
[6] = second compound 0.1 µM, first compound 10 µM
[7] = second compound 0.316 µM, first compound 0.0316 µM
[8] = second compound 0.316 µM, first compound 0.1 µM
[9] = second compound 0.316 µM, first compound 0.316 µM
[10] = second compound 0.316 µM, first compound 1 µM
[11] = second compound 0.316 µM, first compound 3.16 µM
[12] = second compound 0.316 µM, first compound 10 µM
[13] = second compound 1 µM, first compound 0.0316 µM
[14] = second compound 1 µM, first compound 0.1 µM
[15] = second compound 1 µM, first compound 0.316 µM
[16] = second compound 1 µM, first compound 1 µM
[17] = second compound 1 µM, first compound 3.16 µM
[18] = second compound 1 µM, first compound 10 µM
[19] = second compound 3.16 µM, first compound 0.0316 µM
[20] = second compound 3.16 µM, first compound 0.1 µM
[21] = second compound 3.16 µM, first compound 0.316 µM
[22] = second compound 3.16 µM, first compound 1 µM
[23] = second compound 3.16 µM, first compound 3.16 µM
[24] = second compound 3.16 µM, first compound 10 µM
[25] = second compound 10 µM, first compound 0.0316 µM
[26] = second compound 10 µM, first compound 0.1 µM
[27] = second compound 10 µM, first compound 0.316 µM
[28] = second compound 10 µM, first compound 1 µM
[29] = second compound 10 µM, first compound 3.16 µM
[30] = second compound 10 µM, first compound 10 µM
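Throughout, for viability, T/C: compound exposure lasted 7 days; 100% = DMSO vehicle control growth.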

IC50 (second compound 0.1 µM): 11.7 nM
IC50 (second compound 0.316 µM): 16.4 nM
IC50 (second compound 1 µM): 15.7 nM
IC50 (second compound 3.16 µM): 11.5 nM
IC50 (second compound 10 µM): 12.1 nM
Compound: CCc1c2c(nc3ccc(O)cc13)-c1cc3c(c(=O)n1C2)COC(=O)[C@]3(O)CC + CC(CO)NC(=O)c1cc(-c2ccc(Cl)cc2)nn(-c2cnn(C)c2)c1=O
viability, T/C (second compound 0.1 µM, first compound 0.000949 µM): 77.2%
viability, T/C (second compound 0.1 µM, first compound 0.003 µM): 73.5%
viability, T/C (second compound 0.1 µM, first compound 0.00949 µM): 49.5%
viability, T/C (second compound 0.1 µM, first compound 0.03 µM): 36.7%
viability, T/C (second compound 0.1 µM, first compound 0.0949 µM): 19.2%
viability, T/C (second compound 0.1 µM, first compound 0.3 µM): 11.6%
viability, T/C (second compound 0.316 µM, first compound 0.000949 µM): 81.5%
viability, T/C (second compound 0.316 µM, first compound 0.003 µM): 79.6%
viability, T/C (second compound 0.316 µM, first compound 0.00949 µM): 60.7%
viability, T/C (second compound 0.316 µM, first compound 0.03 µM): 36.9%
viability, T/C (second compound 0.316 µM, first compound 0.0949 µM): 20.6%
viability, T/C (second compound 0.316 µM, first compound 0.3 µM): 12.1%
viability, T/C (second compound 1 µM, first compound 0.000949 µM): 77.3%
viability, T/C (second compound 1 µM, first compound 0.003 µM): 74.2%
viability, T/C (second compound 1 µM, first compound 0.00949 µM): 59.5%
viability, T/C (second compound 1 µM, first compound 0.03 µM): 36.8%
viability, T/C (second compound 1 µM, first compound 0.0949 µM): 21.4%
viability, T/C (second compound 1 µM, first compound 0.3 µM): 11.3%
viability, T/C (second compound 3.16 µM, first compound 0.000949 µM): 73.6%
viability, T/C (second compound 3.16 µM, first compound 0.003 µM): 67%
viability, T/C (second compound 3.16 µM, first compound 0.00949 µM): 52.6%
viability, T/C (second compound 3.16 µM, first compound 0.03 µM): 34.9%
viability, T/C (second compound 3.16 µM, first compound 0.0949 µM): 18%
viability, T/C (second compound 3.16 µM, first compound 0.3 µM): 9.46%
viability, T/C (second compound 10 µM, first compound 0.000949 µM): 80.2%
viability, T/C (second compound 10 µM, first compound 0.003 µM): 69.9%
viability, T/C (second compound 10 µM, first compound 0.00949 µM): 56.9%
viability, T/C (second compound 10 µM, first compound 0.03 µM): 30%
viability, T/C (second compound 10 µM, first compound 0.0949 µM): 18%
viability, T/C (second compound 10 µM, first compound 0.3 µM): 8.73%

IC50 (second compound 0.1 µM): < 31.6 nM
IC50 (second compound 0.316 µM): < 31.6 nM
IC50 (second compound 1 µM): < 31.6 nM
IC50 (second compound 3.16 µM): < 31.6 nM
IC50 (second compound 10 µM): < 31.6 nM
Compound: Nc1ccn(C2OC(CO)C(O)C2(F)F)c(=O)n1 (stereo not given) + CC(CO)NC(=O)c1cc(-c2ccc(Cl)cc2)nn(-c2cnn(C)c2)c1=O
viability, T/C [1]: 37%
viability, T/C [2]: 40.3%
viability, T/C [3]: 35.8%
viability, T/C [4]: 35.8%
viability, T/C [5]: 37.5%
viability, T/C [6]: 31.4%
viability, T/C [7]: 36.6%
viability, T/C [8]: 35.2%
viability, T/C [9]: 39.2%
viability, T/C [10]: 41.1%
viability, T/C [11]: 32%
viability, T/C [12]: 29.3%
viability, T/C [13]: 35%
viability, T/C [14]: 36.5%
viability, T/C [15]: 36.5%
viability, T/C [16]: 38.5%
viability, T/C [17]: 36.2%
viability, T/C [18]: 36.6%
viability, T/C [19]: 32.8%
viability, T/C [20]: 37.3%
viability, T/C [21]: 36.2%
viability, T/C [22]: 38.3%
viability, T/C [23]: 35.5%
viability, T/C [24]: 34.3%
viability, T/C [25]: 37.4%
viability, T/C [26]: 34.4%
viability, T/C [27]: 42.5%
viability, T/C [28]: 40.6%
viability, T/C [29]: 39.6%
viability, T/C [30]: 36%

IC50 (second compound 0.1 µM): > 10000 nM
IC50 (second compound 0.316 µM): > 10000 nM
IC50 (second compound 1 µM): > 10000 nM
IC50 (second compound 3.16 µM): > 10000 nM
IC50 (second compound 10 µM): > 10000 nM
Compound: O=C(c1cc(Cc2n[nH]c(=O)c3ccccc23)ccc1F)N1CCN(C(=O)C2CC2)CC1 + CC(CO)NC(=O)c1cc(-c2ccc(Cl)cc2)nn(-c2cnn(C)c2)c1=O
viability, T/C [1]: 93.7%
viability, T/C [2]: 94.6%
viability, T/C [3]: 93%
viability, T/C [4]: 85.1%
viability, T/C [5]: 83.7%
viability, T/C [6]: 82.4%
viability, T/C [7]: 91.9%
viability, T/C [8]: 98%
viability, T/C [9]: 93%
viability, T/C [10]: 89.3%
viability, T/C [11]: 81.4%
viability, T/C [12]: 84.3%
viability, T/C [13]: 93.9%
viability, T/C [14]: 108%
viability, T/C [15]: 95.2%
viability, T/C [16]: 95%
viability, T/C [17]: 90.1%
viability, T/C [18]: 73.2%
viability, T/C [19]: 90.2%
viability, T/C [20]: 89.7%
viability, T/C [21]: 94.2%
viability, T/C [22]: 84%
viability, T/C [23]: 81.4%
viability, T/C [24]: 74.4%
viability, T/C [25]: 106%
viability, T/C [26]: 105%
viability, T/C [27]: 85.2%
viability, T/C [28]: 99.5%
viability, T/C [29]: 79.1%
viability, T/C [30]: 77.6%
